Drawing on patent publication US7741520B2, “Sulfonanilide analogs as selective aromatase modulators (SAMs)” (The Ohio State University Research Foundation, priority 2006, dated 2010), this text covers melting point, IC50 and CYP19 gene expression for eleven compounds.

Structures are written as SMILES.

Data set [1] concerns aromatase activity in SK-BR-3 breast cancer cells. Nature of the data set: Aromatase tritiated water-release assay in SK-BR-3 cell lines (first compound set). Type of data set: cell-based, human. To be noted: SK-BR-3 cells, 24 h treatment; five concentrations, each in triplicate; read-out: IC50 (μM), suppression of aromatase activity in SK-BR-3 breast cancer cells. The method, then:
Aromatase Tritiated Water-Release Assay in SK-BR-3 Cell Lines. SK-BR-3 cells were obtained from ATCC (Rockville, Md.). Cell cultures were maintained in phenol red-free custom media (MEM, Earle's salts, 1.5× amino acids, 2× nonessential amino acids, L-glutamine, 1.5× vitamins, Gibco BRL) supplemented with 10% fetal bovine serum (FBS), 2 mM L-glutamine, and 20 mg/L gentamycin. Measurement of aromatase enzyme activity was based on the tritium water release assay. 24 Cells in 100 mm Petri dish were treated with 0.1% DMSO (control), and inhibitors at the indicated concentrations. After 24 h, the media was changed and the cells were incubated with 100 nM [1â-3H]-androst-4-ene-3,17-dione ([…]) for 3 h. Subsequently, the reaction mixture was removed, and proteins were precipitated using 10% trichloroacetic acid at 42° C. for 20 min. After a brief centrifugation, the media was extracted three times with an equal amount of chloroform to extract unused substrate and further dextran-treated charcoal. After centrifugation, a 250-μL aliquot containing the product was counted in 5 mL of liquid scintillation mixture. Results were corrected for blanks and for the cell contents of culture flasks, and results were expressed as picomoles of 3H2O formed per hour incubation time per million live cells (pmol/h/10^6 cells). To determine the amount of cells in each flask, the cells were trypsinized and analyzed using the diphenylamine DNA assay adapted to a 96-well plate. (Natarajan N.; Shambaugh, G. E., 3rd; Elseth K. M.; Haines G. K.; Radosevich J. A. Adaptation of the diphenylamine (DPA) assay to a 96-well plate tissue culture format and comparison with the MTT assay. Biotechniques 1994, 17, 166-171; incorporated herein by reference). IC50 sigmoidal dose-response data were analyzed with Microsoft Excel and the Graphpad Prism (Version 3.0) program.

The subject of data set [2] is CYP19 mRNA expression in SK-BR-3 cells. Description: CYP19 mRNA expression by real-time RT-PCR in SK-BR-3 cells. It counts as cell-based, human. To be noted: 5 μM, 24 h (FIG. 14). The procedure:
RNA Extraction. Total RNA was isolated using the TRIzol reagent according to the manufacturer's protocol. Total RNA pellets were dissolved in DNase- and RNase-free water and quantitated using a spectrophotometer. The quality of RNA samples was determined by electrophoresis through agarose gels and staining with ethidium bromide; the 18S and 28S rRNA bands were visualized under ultraviolet light.
(§1) cDNA Synthesis. Isolated total RNA (2 μg) was treated with DNase I Amplification grade, according to the recommended protocol to eliminate any DNA before reverse transcription. Treated total RNA was denatured at 65° C. for 5 min in the presence of 2.5 ng/μL random hexamers and 0.5 mM dNTP mix. The samples were snap-cooled on ice and centrifuged briefly. Complementary DNA (cDNA) was synthesized using Superscript II reverse transcriptase according to the recommended protocol. Briefly, the reactions were conducted in the presence of 1× First-Strand Buffer and 20 mM DTT at 42° C. for 50 min and consequently inactivated at 70° C. for 15 min. The cDNA generated was used as a template in realtime PCR reactions.
Real-Time PCR. Real-time PCR was performed using the Opticon 2 system from MJ Research (Waltham, Mass.). For the CYP19 total gene the PCR reaction mixture consisted of Taqman Universal PCR Master Mix (Applied Biosystems), 600 nM of CYP19 primer (sense: 5′-TGTCTCTTTGTTCTTCATGCTATTTCTC-3′ (SEQ ID NO: 1); antisense: 5′-TCACCAATAACAGTCTGGATTTCC-3′) (SEQ ID NO: 2); 250 nM Taqman probe (6FAM 5′-TGCAAAGCACCCTAATGTTGAAGAGGCAAT-3′TAMRA) (SEQ ID NO: 3) (Invitrogen), 18S rRNA (Applied Biosystems, Foster City, Calif.), and 2.0 μL of each RT sample in a final volume of 20 μL. The Taqman probe was designed to anneal to a specific sequence of the aromatase gene between the forward and the reverse primers. Cycling conditions were 50° C. for 2 mm and 95° C. for 10 mm, followed by 50 cycles at 95° C. for 15 s and 60° C. for 1 mm.
RNA extraction. Total RNA was isolated using the TRIzol reagent according to the manufacturer's protocol. Total RNA pellets were dissolved in DNase, RNase-free water and quantitated using a spectrophotometer. The quality of RNA samples was determined by electrophoresis through agarose gels and staining with ethidium bromide; the 18S and 28S rRNA bands were visualized under ultraviolet light.
as §1, with “synthesis.” for “Synthesis.”, “real-time” for “realtime”
Real-time PCR. Real-time PCR was performed using the Opticon™ 2 system from MJ Research (Waltham, Mass.). For the CYP19 total gene the PCR reaction mixture consisted of Taqman® Universal PCR Master Mix (Applied Biosystems), 600 nM of CYP19 primer (sense: 5′-TGTCTCTTTGTTCTTCATGCTATTTCTC-3′ (SEQ ID NO: 1); antisense: 5′-TCACCAATAACAGTCTGGATTTCC-3′) (SEQ ID NO: 2); 250 nM Taqman probe (6FAM 5′-TGCAAAGCACCCTAATGTTGAAGAGGCAAT-3′TAMRA) (SEQ ID NO: 3) (Invitrogen), and 2.0 μL of each cDNA sample in a final volume of 20 μL. […]
A general note: Real-time PCR tracks product formation cycle by cycle.

By melting point is commonly meant the temperature of the solid-liquid transition. Broadly, the IC50 is the concentration at which inhibition is half-maximal. On to `CCCCCCOc1cc([N+](=O)[O-])ccc1N(C)S(C)(=O)=O` [Compound 24, N-Methyl-N-(2-hexyloxy-4-nitrophenyl)methanesulfonamide], for which the melting point was in the range of 44 to 46 °C. Besides, the IC50 in data set [1] was 4.49 µM.
Taken in the same sequence, the figures for `CCCCCCCCCOc1cc([N+](=O)[O-])ccc1NS(C)(=O)=O` [Compound 14, N-(2-Nonyloxy-4-nitrophenyl)methanesulfonamide] were 70 to 71 °C and 0.91 µM.
For `CCCOc1cc([N+](=O)[O-])ccc1N(C)S(C)(=O)=O` [Compound 18, N-Methyl-N-(2-propyloxy-4-nitrophenyl)methanesulfonamide], the melting point fell in the range of 66 to 69 °C. For the same compound, the IC50 in data set [1] worked out at 0.76 µM.
Consider `COc1cc([N+](=O)[O-])ccc1NS(C)(=O)=O` [Compound 16, N-(2-Methoxy-4-nitrophenyl)methanesulfonamide], for which the melting point was in the range of 128 to 130 °C. Also, in data set [1], the IC50 is over 25 µM.
Turning to `CCCCCCOc1cc([N+](=O)[O-])ccc1NS(C)(=O)=O` [Compound 15, N-(2-Hexyloxy-4-nitrophenyl)methanesulfonamide], the melting point was in the range of 74 to 76 °C. In addition, in data set [1], the half-maximal inhibitory concentration (IC50) was found to be 2.67 µM.
Taken in the same sequence, the figures for `CCCOc1cc([N+](=O)[O-])ccc1NS(C)(=O)=O` [Compound 9, N-(2-Propyloxy-4-nitrophenyl)methanesulfonamide] were 117 to 119 °C and 2.51 µM.
In turn, `CC(C)Oc1cc([N+](=O)[O-])ccc1N(C)S(C)(=O)=O` [Compound 19, N-Methyl-N-(2-isopropyloxy-4-nitrophenyl)methanesulfonamide] returned a melting point of 99 to 100 °C. The IC50 in data set [1] was 2.81 µM.
`CCCCCCCCCOc1cc([N+](=O)[O-])ccc1N(C)S(C)(=O)=O` [Compound 23, N-Methyl-N-(2-nonyloxy-4-nitrophenyl)methanesulfonamide] displayed a melting point of 83 to 84 °C. Besides, the IC50 in data set [1] amounted to 3.96 µM.
In the case of `CS(=O)(=O)Nc1ccc([N+](=O)[O-])cc1OCCc1ccccc1` [Compound 37b, N-(2-phenylethoxy 4-nitrophenyl) methanesulfonamide], the CYP19 gene expression entry in data set [2] is recorded as “not affect the CYP19 gene expression”.
In turn, `CC(C)Oc1cc([N+](=O)[O-])ccc1NS(C)(=O)=O` [Compound 10, N-(2-Isopropyloxy-4-nitrophenyl)methanesulfonamide] gave a melting point of 128 to 131 °C. Further, in data set [1], the IC50 was 5.87 µM.
For `COc1cc([N+](=O)[O-])ccc1N(C)S(C)(=O)=O` [Compound 25, N-Methyl-N-(2-methoxy-4-nitrophenyl)methanesulfonamide] the same measures were 125 to 126 °C and over 25 µM.
